The target in series [1] is Van2 aTF (PcaV I110V M113S N114A) (Streptomyces coelicolor). The experiment in a line: SEC-MALS; 0.75 mL at 1.5 mg/mL loaded on Superdex 10/300 GL; in the absence of the effector.
Series [2] addresses T1, Van2 (PcaV mutant) (Streptomyces coelicolor, UniProt Q9XAM6, I110V/M113S/N114A).
T1 construct: gene SCO6704
The series is described as follows: cell-based. The following applies: read-out: E. coli RARE eGFP derepression reporter, 2.5 mM.

Series [3] concerns the target T2, PcaV (Streptomyces coelicolor, UniProt Q9XAM6).
T2 construct: gene SCO6704
The series is described as follows: E. coli PcaV/PPV-eGFP derepression reporter, dose response. Type of series: cell-based.

The target of series [4] is PcaV allosteric transcription factor from Streptomyces coelicolor (Streptomyces coelicolor). The series is described as follows: SEC-MALS; 0.75 mL at 1.5 mg/mL loaded on Superdex 10/300 GL; in the absence of the effector.
The target of series [5] is T3, PcaV N114A (Streptomyces coelicolor, UniProt Q9XAM6, N114A).
T3 construct: gene SCO6704
The series is described as follows: cell-based. The following applies: read-out: Max/Min (2.5 mM induction) / PCA.

Series [6] addresses T4, Van2 (PcaV mutant) (Streptomyces coelicolor, UniProt Q9XAM6, I110V/M113S/N114A).
T4 construct: gene SCO6704; His-TEV tag-cleaved purified protein, homodimer
T4 sequence (Q9XAM6 1-154 I110V/M113S/N114A): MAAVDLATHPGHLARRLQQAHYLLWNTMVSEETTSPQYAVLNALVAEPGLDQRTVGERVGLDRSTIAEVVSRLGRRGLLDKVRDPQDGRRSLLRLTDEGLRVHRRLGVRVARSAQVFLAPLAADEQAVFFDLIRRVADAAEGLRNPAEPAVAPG
The experiment in a line: EMSA titration ([…]), disruption of the Van2-PV DNA complex; no response in cells. The class given is biochemical.

The target of series [7] is T5, PcaV I110V (Streptomyces coelicolor, UniProt Q9XAM6, I110V).
T5 construct: gene SCO6704
The series is described as follows: cell-based. The following applies: read-out: Max/Min (2.5 mM induction) / PCA.

For series [8], the target named is T6, Van2 (Streptomyces coelicolor, UniProt Q9XAM6 1-154, I110V;M113S;N114A).
T6 sequence: T4 sequence (Q9XAM6 1-154 I110V/M113S/N114A)
The series is described as follows: EMSA; no effector; 500 nM protein, 500 pM probe; SPR: 10 mM Hepes, 150 mM NaCl, pH 7.4 (temperature not stated); EMSA: 50 mM Tris-HCl, 50 mM KCl, 5 mM MgCl2, 1 mM EDTA, 5% glycerol, 0.1 ug poly(dI-dC), 1 mM DTT, 30 C 20 min (+30 min with ligand). The conditions noted are these: protein: recombinant; tags: N-terminal His-TEV, removed by TEV protease; chain copies: 2; label: 5' IRD700 on both strands; blunt.

Series [9] addresses T6, Van2. The experiment in a line: SPR; no effector; 9.4-600 nM protein; SPR: 10 mM Hepes, 150 mM NaCl, pH 7.4 (temperature not stated); EMSA: 50 mM Tris-HCl, 50 mM KCl, 5 mM MgCl2, 1 mM EDTA, 5% glycerol, 0.1 ug poly(dI-dC), 1 mM DTT, 30 C 20 min (+30 min with ligand). The conditions noted are these: protein: recombinant; tags: N-terminal His-TEV, removed by TEV protease; chain copies: 2; label: 5' biotin on strand 1; blunt.

For series [10], the target named is T7, PcaV (Streptomyces coelicolor, UniProt Q9XAM6 1-154).
T7 sequence: T4 sequence (Q9XAM6 1-154 I110V/M113S/N114A) with V110I, S113M, A114N
The series is described as follows: EMSA; no effector; 250 nM protein, 500 pM probe; SPR: 10 mM Hepes, 150 mM NaCl, pH 7.4 (temperature not stated); EMSA: 50 mM Tris-HCl, 50 mM KCl, 5 mM MgCl2, 1 mM EDTA, 5% glycerol, 0.1 ug poly(dI-dC), 1 mM DTT, 30 C 20 min (+30 min with ligand). The conditions noted are these: protein: recombinant; tags: N-terminal His-TEV, removed by TEV protease; chain copies: 2; label: 5' IRD700 on both strands; blunt.

Residue numbers refer to the chain shown, from its start.

As for Van2 aTF (PcaV I110V M113S N114A), the stoichiometry N in series [1] worked out at 2. For `O=Cc1ccccc1O` [2-hydroxybenzaldehyde], the fold induction at 2500 µM in series [2] was above 6. `O=C(O)c1cccc(O)c1` [3HB, 3-hydroxybenzoic acid]: the “E. coli PcaV/PPV-eGFP derepression reporter, dose response” value in series [3] is 3-hydroxybenzoic acid (3HB) and 4-hydroxybenzoic acid (4HB), as observed by fitting the dose response curves. In the case of “PcaV allosteric transcription factor from Streptomyces coelicolor (natural protein)”, the stoichiometry N in series [4] amounted to 2. On to `O=Cc1ccc(O)c(O)c1` [3,4-dihydroxybenzaldehyde], for which the fold induction at 2500 µM in series [2] is above 6. Regarding `O=C(O)c1ccc(O)cc1` [4HB, 4-hydroxybenzoic acid], the “E. coli PcaV/PPV-eGFP derepression reporter, dose response” value in series [3] is 3-hydroxybenzoic acid (3HB) and 4-hydroxybenzoic acid (4HB), as observed by fitting the dose response curves.

With `Cc1cc(C=O)ccc1O` [4-hydroxy-3-methylbenzaldehyde], the fold induction at 2500 µM in series [2] was above 6. For `O=C(O)c1ccc(O)c(O)c1` [PCA, 3,4-dihydroxybenzoic acid], the fold induction at 2500 µM is 18 in series [5] and 304 in [7]. For the same molecule, the “EMSA titration (2.5-12.5 mM), disruption of the Van2-PV DNA complex; no response” value in series [6] is given as “Van2 responds to vanillin but is still responsive to PCA in contradiction with the observed in vivo biosensor performance”.

B1: Rnd Probe (IR700 duplex) (dsDNA)
DNA 1: GAGTTAGAGTACGCGTTAAACACTTCACAGAT
DNA 2: ATCTGTGAAGTGTTTAACGCGTACTCTAACTC
On to B1, for which the binding result in [8] is “no binding”.

B2: PV Probe Bio (dsDNA)
DNA 1: TTGACTATACTCAGTGCCCTGACTATGATACT
DNA 2: AGTATCATAGTCAGGGCACTGAGTATAGTCAA
As to B2, in series [9], the Kd came to 86.7 nM.

B3: PV Probe (IR700 duplex) (dsDNA)
DNA 1: B2 DNA 1
DNA 2: B2 DNA 2
Consider B3, for which the binding result in series [10] was “binds”.

The record behind these values is publication PMC6882365, “Directed evolution of the PcaV allosteric transcription factor to generate a biosensor for aromatic aldehydes” (Journal of Biological Engineering, 2019).
